From ChEMBL document CHEMBL1143505, “Synthesis and pharmacological investigation of novel 1-substituted-4-phenyl-1,2,4-triazolo[4,3-a]quinazolin-5(4H)-ones as a new class of H1-antihistaminic agents” (2005)

Tests used:
Cavia porcellus [1] = species: Cavia porcellus; experiment: Percentage protection of guinea pigs from histamine induced bronchospasm by compound; set-up: concentration or dose not given beside the values
Cavia porcellus [2] = species: Cavia porcellus; experiment: Percentage reduction central nervous system depression in guinea pig by compound

| SMILES | Protection (Cavia porcellus [1]) [%] | Depression (Cavia porcellus [2]) [%] |
| --- | --- | --- |
| O=c1c2ccccc2n2cnnc2n1-c1ccccc1 | 69.9 | 4.2 |
| Cc1nnc2n(-c3ccccc3)c(=O)c3ccccc3n12 | 70.7 | 4.8 |
| O=c1c2ccccc2n2c(CCl)nnc2n1-c1ccccc1 | 68.7 | 3.7 |
| CCCc1nnc2n(-c3ccccc3)c(=O)c3ccccc3n12 | 69.2 | 7.3 |
| CCc1nnc2n(-c3ccccc3)c(=O)c3ccccc3n12 | 70 | 5.3 |
| O=C(O)COCCN1CCN(C(c2ccccc2)c2ccc(Cl)cc2)CC1 (centres undefined) [CETIRIZINE] | 78.9 | 8.5 |
| CN(C)CCC(c1ccc(Cl)cc1)c1ccccn1.O=C(O)/C=C\C(=O)O (centres undefined) [CHLORPHENIRAMINE MALEATE] | 71 | 26 |
